Assay results published in article PMC6768983, “Transcriptomic Identification and Biochemical Characterization of HmpA, a Nitric Oxide Dioxygenase, Essential for Pathogenesis of Vibrio vulnificus” (Frontiers in Microbiology, 2019).

Target: T1, VvHmpA (Vibrio vulnificus, UniProt Q8DCU2)
T1 construct: gene hmp; reconstituted with heme or FAD
Test: FAD fluorometric assay after reconstitution
Format: binding
Conditions: 10 μM protein incubated with 80 μM FAD, 1 h, room temperature; stoichiometry, no affinity constant

T1 sequence (Q8DCU2 whole entry): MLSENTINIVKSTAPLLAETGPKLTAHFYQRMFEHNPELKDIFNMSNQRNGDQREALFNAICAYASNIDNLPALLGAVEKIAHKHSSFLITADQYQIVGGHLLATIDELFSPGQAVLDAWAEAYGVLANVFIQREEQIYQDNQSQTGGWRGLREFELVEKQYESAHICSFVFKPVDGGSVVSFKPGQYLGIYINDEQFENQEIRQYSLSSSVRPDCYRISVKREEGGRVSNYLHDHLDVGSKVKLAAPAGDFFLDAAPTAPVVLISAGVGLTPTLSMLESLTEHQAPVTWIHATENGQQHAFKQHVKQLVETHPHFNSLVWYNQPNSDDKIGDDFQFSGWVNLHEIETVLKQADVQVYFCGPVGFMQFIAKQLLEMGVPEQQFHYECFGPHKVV

Cc1cc2nc3c(=O)[nH]c(=O)nc-3n(C[C@H](O)[C@H](O)[C@H](O)COP(=O)(O)OP(=O)(O)OC[C@H]3O[C@@H](n4cnc5c(N)ncnc54)[C@H](O)[C@@H]3O)c2cc1C [FAD]
molecules of FAD per VvHmpA monomer: 0.92 ± 0.12 molecules per monomer
